What was measured:
Plasma Stability = assay type: in vitro ADME, human; conditions: % remaining @ 1 h
Procedure, shortened: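 Parent compound quantified by LC-MS/MS after acetonitrile precipitation, reported as percent of control remaining (triplicate). Incubation: 1 hour, 37° C, fresh human plasma, compound at 1 μM.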

[1] = Stability in Simulated Gastric Fluid (SGF); assay type: in vitro ADME; set-up: key: % parent compound remaining relative to 0-minute sample; conditions: % remaining @ 1 h
Procedure, shortened: (§1)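 LC-MS/MS read-out of intact compound (2 μg/mL final) over 60 minutes at 37° C; gastric medium pH 1.2 with pepsin, intestinal medium pH 6.8 with pancreatin. Half-life from ln(% remaining) against time.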

[2] = Caco-2 Permeability Assay; assay type: in vitro ADME, human; conditions: human, Caco-2, pH 7.4
Procedure, shortened: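 Bidirectional transport at 37 °C for 90 min, 10 μM donor concentration, with or without Pgp inhibitor, across 21-day Caco-2 monolayers with TEER >600 […] in HEPES-buffered HBSS, pH 7.4. LC-MS/MS of donor and receiver samples gives Papp, B→A/A→B efflux ratio and mass recovery.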

[3] = Stability in Simulated Intestinal Fluid (SIF); assay type: in vitro ADME; set-up: key: % parent compound remaining relative to 0-minute sample; conditions: % remaining @ 1 h
Procedure, shortened: as §1

| SMILES | human Plasma stability (Plasma Stability) | SGF [1] | Papp at 90 min, 10 µM [2] | SIF [3] |
| --- | --- | --- | --- | --- |
| CC(C)OCCn1c(=S)n(COC(=O)[C@H](C)N)c(=O)c2c1ccn2COC(=O)[C@H](C)N.O=C(O)C(F)(F)F.O=C(O)C(F)(F)F [Example 289, bis(trifluoroacetic acid) [3-({[(2S)-2-aminopropanoyl]oxy}methyl)-4-oxo-1-[2-(propan-2-yloxy)ethyl]-2-sulfanylidene-1H,2H,3H,4H,5H-pyrrolo[3,2-d]pyrimidin-5-yl]methyl (2S)-2-aminopropanoate] | 39% @ 1 h | 100% @ 1 h | < 0.366 ×10⁻⁶ cm/s | 97% @ 1 h |
| CC(C)OCCn1c(=S)[nH]c(=O)c2c1ccn2COC(=O)[C@@H](C)N.O=C(O)C(F)(F)F [Example 292, trifluoroacetic acid {4-oxo-1-[2-(propan-2-yloxy)ethyl]-2-sulfanylidene-1H,2H,3H,4H,5H-pyrrolo[3,2-d]pyrimidin-5-yl}methyl (2R)-2-aminopropanoate] | 20% @ 1 h | 99% @ 1 h | < 1.06 ×10⁻⁶ cm/s | 7% @ 1 h |
| CC(C)OCCn1c(=S)n(COC(=O)[C@@H](C)N)c(=O)c2c1ccn2COC(=O)[C@@H](C)N.O=C(O)C(F)(F)F.O=C(O)C(F)(F)F [Example 293, bis(trifluoroacetic acid) [3-({[(2R)-2-aminopropanoyl]oxy}methyl)-4-oxo-1-[2-(propan-2-yloxy)ethyl]-2-sulfanylidene-1H,2H,3H,4H,5H-pyrrolo[3,2-d]pyrimidin-5-yl]methyl (2R)-2-aminopropanoate] | 25% @ 1 h | 100% @ 1 h | < 1.06 ×10⁻⁶ cm/s | 29% @ 1 h |
| CC(C)OCCn1c(=S)[nH]c(=O)c2c1ccn2COC(=O)[C@@H](NC(=O)OC(C)(C)C)C(C)C [Example 294, {4-oxo-1-[2-(propan-2-yloxy)ethyl]-2-sulfanylidene-1H,2H,3H,4H,5H-pyrrolo[3,2-d]pyrimidin-5-yl}methyl (2S)-2-{[(tert-butoxy)carbonyl]amino}-3-methylbutanoate] | 98% @ 1 h | 98% @ 1 h | 26.8 ×10⁻⁶ cm/s | 3% @ 1 h |
| CC(C)OCCn1c(SCOC(=O)[C@@H](NC(=O)OC(C)(C)C)C(C)C)nc(=O)c2c1ccn2COC(=O)[C@@H](NC(=O)OC(C)(C)C)C(C)C [Example 295, {[5-({[(2S)-2-{[(tert-butoxy)carbonyl]amino}-3-methylbutanoyl]oxy}methyl)-4-oxo-1-[2-(propan-2-yloxy)ethyl]-1H,4H,5H-pyrrolo[3,2-d]pyrimidin-2-yl]sulfanyl}methyl (2S)-2-{[(tert-butoxy)carbonyl]amino}-3-methylbutanoate] | 81% @ 1 h | 58% @ 1 h | 17 ×10⁻⁶ cm/s | 0% @ 1 h |
| CC(C)OCCn1c(=S)[nH]c(=O)c2c1ccn2COC(=O)[C@@H](N)C(C)C.O=C(O)C(F)(F)F [Example 296, trifluoroacetic acid {4-oxo-1-[2-(propan-2-yloxy)ethyl]-2-sulfanylidene-1H,2H,3H,4H,5H-pyrrolo[3,2-d]pyrimidin-5-yl}methyl (2S)-2-amino-3-methylbutanoate] | 12% @ 1 h | 97% @ 1 h | 1.18 ×10⁻⁶ cm/s | 43% @ 1 h |
| CC(C)OCCn1c(=S)n(COC(=O)[C@@H](N)C(C)C)c(=O)c2c1ccn2COC(=O)[C@@H](N)C(C)C.O=C(O)C(F)(F)F.O=C(O)C(F)(F)F [Example 297, bis(trifluoroacetic acid) [3-({[(2S)-2-amino-3-methylbutanoyl]oxy}methyl)-4-oxo-1-[2-(propan-2-yloxy)ethyl]-2-sulfanylidene-1H,2H,3H,4H,5H-pyrrolo[3,2-d]pyrimidin-5-yl]methyl (2S)-2-amino-3-methylbutanoate] | 6% @ 1 h | 100% @ 1 h | 0.462 ×10⁻⁶ cm/s | 6% @ 1 h |
| CC(C)OCCn1c(=S)[nH]c(=O)c2c1ccn2COC(=O)[C@H](NC(=O)OC(C)(C)C)C(C)C [Example 298, {4-oxo-1-[2-(propan-2-yloxy)ethyl]-2-sulfanylidene-1H,2H,3H,4H,5H-pyrrolo[3,2-d]pyrimidin-5-yl}methyl (2R)-2-{[(tert-butoxy)carbonyl]amino}-3-methylbutanoate] | 99% @ 1 h | 99% @ 1 h | 33.5 ×10⁻⁶ cm/s | 59% @ 1 h |
| CC(C)OCCn1c(SCOC(=O)[C@H](NC(=O)OC(C)(C)C)C(C)C)nc(=O)c2c1ccn2COC(=O)[C@H](NC(=O)OC(C)(C)C)C(C)C [Example 299, {[5-({[(2R)-2-{[(tert-butoxy)carbonyl]amino}-3-methylbutanoyl]oxy}methyl)-4-oxo-1-[2-(propan-2-yloxy)ethyl]-1H,4H,5H-pyrrolo[3,2-d]pyrimidin-2-yl]sulfanyl}methyl (2R)-2-{[(tert-butoxy)carbonyl]amino}-3-methylbutanoate] | 94% @ 1 h | 54% @ 1 h | 15.8 ×10⁻⁶ cm/s | 27% @ 1 h |
| CC(C)OCCn1c(=S)[nH]c(=O)c2c1ccn2COC(=O)[C@H](N)C(C)C [Example 300, trifluoroacetic acid {4-oxo-1-[2-(propan-2-yloxy)ethyl]-2-sulfanylidene-1H,2H,3H,4H,5H-pyrrolo[3,2-d]pyrimidin-5-yl}methyl (2R)-2-amino-3-methylbutanoate] | 2% @ 1 h | 100% @ 1 h | 12.9 ×10⁻⁶ cm/s | 70% @ 1 h |
| CC(C)OCCn1c(=S)n(COC(=O)[C@H](N)C(C)C)c(=O)c2c1ccn2COC(=O)[C@H](N)C(C)C.O=C(O)C(F)(F)F.O=C(O)C(F)(F)F [Example 301, bis(trifluoroacetic acid) [3-({[(2R)-2-amino-3-methylbutanoyl]oxy}methyl)-4-oxo-1-[2-(propan-2-yloxy)ethyl]-2-sulfanylidene-1H,2H,3H,4H,5H-pyrrolo [3,2-d]pyrimidin-5-yl]methyl (2R)-2-amino-3-methylbutanoate] | 5% @ 1 h | 97% @ 1 h | 1.72 ×10⁻⁶ cm/s | 10% @ 1 h |
| CC(C)OCCn1c(=S)[nH]c(=O)c2c1ccn2COC(=O)[C@H](Cc1ccccc1)NC(=O)OC(C)(C)C [Example 302, {4-oxo-1-[2-(propan-2-yloxy)ethyl]-2-sulfanylidene-1H,2H,3H,4H,5H-pyrrolo[3,2-d]pyrimidin-5-yl}methyl (2S)-2-{[(tert-butoxy)carbonyl]amino}-3-phenylpropanoate] | 67% @ 1 h | 97% @ 1 h | 4.48 ×10⁻⁶ cm/s | 5% @ 1 h |
| CC(C)OCCn1c(SCOC(=O)[C@H](Cc2ccccc2)NC(=O)OC(C)(C)C)nc(=O)c2c1ccn2COC(=O)[C@H](Cc1ccccc1)NC(=O)OC(C)(C)C [Example 303, {[5-({[(2S)-2-{[(tert-butoxy)carbonyl]amino}-3-phenylpropanoyl]oxy}methyl)-4-oxo-1-[2-(propan-2-yloxy)ethyl]-1H,4H,5H-pyrrolo[3,2-d]pyrimidin-2-yl]sulfanyl}methyl (2S)-2-{[(tert-butoxy)carbonyl]amino}-3-phenylpropanoate] | 28% @ 1 h | 46% @ 1 h | 5.56 ×10⁻⁶ cm/s | 1% @ 1 h |
| CC(C)OCCn1c(=S)n(COC(=O)[C@H](Cc2ccccc2)NC(=O)OC(C)(C)C)c(=O)c2c1ccn2COC(=O)[C@H](Cc1ccccc1)NC(=O)OC(C)(C)C [Example 304, [3-({[(2S)-2-{[(tert-butoxy)carbonyl]amino}-3-phenylpropanoyl]oxy}methyl)-4-oxo-1-[2-(propan-2-yloxy)ethyl]-2-sulfanylidene-1H,2H,3H,4H,5H-pyrrolo[3,2-d]pyrimidin-5-yl]methyl (2S)-2-{[(tert-butoxy)carbonyl]amino}-3-phenylpropanoate] | 99% @ 1 h | 44% @ 1 h | 0.34 ×10⁻⁶ cm/s | 67% @ 1 h |
| CC(C)OCCn1c(=S)[nH]c(=O)c2c1ccn2COC(=O)[C@@H](Cc1ccccc1)NC(=O)OC(C)(C)C [Example 305, {4-oxo-1-[2-(propan-2-yloxy)ethyl]-2-sulfanylidene-1H,2H,3H,4H,5H-pyrrolo [3,2-d]pyrimidin-5-yl}methyl (2R)-2-{[(tert-butoxy)carbonyl]amino}-3-phenylpropanoate] | 39% @ 1 h | 73% @ 1 h | 3.84 ×10⁻⁶ cm/s | 1% @ 1 h |
| CC(C)OCCn1c(SCOC(=O)[C@@H](Cc2ccccc2)NC(=O)OC(C)(C)C)nc(=O)c2c1ccn2COC(=O)[C@@H](Cc1ccccc1)NC(=O)OC(C)(C)C [Example 306, {[5-({[(2R)-2-{[(tert-butoxy)carbonyl]amino}-3-phenylpropanoyl]oxy}methyl)-4-oxo-1-[2-(propan-2-yloxy)ethyl]-1H,4H,5H-pyrrolo[3,2-d]pyrimidin-2-yl]sulfanyl}methyl (2R)-2-{[(tert-butoxy)carbonyl]amino}-3-phenylpropanoate] | 72% @ 1 h | 41% @ 1 h | 3.8 ×10⁻⁶ cm/s | 1% @ 1 h |

— patent US20240067651A1 (Biohaven Therapeutics Ltd., priority 2019, published 2024)
